Results: PMC3883354 (Bioorganic & medicinal chemistry, 2013)
Like-named read-outs stand apart in the source and are kept apart here.

Assays:
human GIVA cPLA2 [1] = molecular target: T1, human GIVA cPLA2 (Homo sapiens, UniProt P47712); assay: mixed micelle-based modified Dole assay, GIVA cPLA2 inhibition; format: biochemical; settings: 0.091 mole fraction inhibitor in mixed micelles; n = 3; listed as GK187
T1 sequence (P47712 1-749): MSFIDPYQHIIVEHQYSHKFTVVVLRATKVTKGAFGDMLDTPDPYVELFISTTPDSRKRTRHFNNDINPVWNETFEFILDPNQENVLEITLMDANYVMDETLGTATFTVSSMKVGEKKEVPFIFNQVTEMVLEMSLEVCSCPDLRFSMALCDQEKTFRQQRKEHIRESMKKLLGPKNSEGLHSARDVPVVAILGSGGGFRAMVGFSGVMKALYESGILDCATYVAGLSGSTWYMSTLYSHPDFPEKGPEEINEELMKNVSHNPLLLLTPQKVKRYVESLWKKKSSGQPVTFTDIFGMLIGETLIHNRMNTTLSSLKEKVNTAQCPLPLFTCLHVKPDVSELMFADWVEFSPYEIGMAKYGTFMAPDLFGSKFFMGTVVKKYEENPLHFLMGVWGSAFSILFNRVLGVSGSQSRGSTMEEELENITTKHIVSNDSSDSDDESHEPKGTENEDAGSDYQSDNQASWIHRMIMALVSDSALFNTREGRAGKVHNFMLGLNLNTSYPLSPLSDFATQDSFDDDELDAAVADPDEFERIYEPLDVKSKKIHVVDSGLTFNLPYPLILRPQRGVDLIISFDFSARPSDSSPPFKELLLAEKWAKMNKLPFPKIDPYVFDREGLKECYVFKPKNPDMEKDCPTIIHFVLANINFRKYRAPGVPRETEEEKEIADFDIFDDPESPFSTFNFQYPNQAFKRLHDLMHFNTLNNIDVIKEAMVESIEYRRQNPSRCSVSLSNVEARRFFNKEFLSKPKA

human GV sPLA2 [2] = molecular target: T2, human GV sPLA2 (Homo sapiens, UniProt P39877); assay: mixed micelle-based modified Dole assay, GV sPLA2 inhibition; format: biochemical; settings: 0.091 mole fraction inhibitor in mixed micelles; n = 3
T2 sequence (P39877 21-138): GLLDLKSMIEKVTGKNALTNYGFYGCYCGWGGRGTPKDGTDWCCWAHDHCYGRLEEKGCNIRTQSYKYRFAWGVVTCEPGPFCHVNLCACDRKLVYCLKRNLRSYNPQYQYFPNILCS

human GVIA iPLA2 = molecular target: T3, human GVIA iPLA2 (Homo sapiens, UniProt O60733); settings: cited from earlier work
T3 sequence (O60733 1-806): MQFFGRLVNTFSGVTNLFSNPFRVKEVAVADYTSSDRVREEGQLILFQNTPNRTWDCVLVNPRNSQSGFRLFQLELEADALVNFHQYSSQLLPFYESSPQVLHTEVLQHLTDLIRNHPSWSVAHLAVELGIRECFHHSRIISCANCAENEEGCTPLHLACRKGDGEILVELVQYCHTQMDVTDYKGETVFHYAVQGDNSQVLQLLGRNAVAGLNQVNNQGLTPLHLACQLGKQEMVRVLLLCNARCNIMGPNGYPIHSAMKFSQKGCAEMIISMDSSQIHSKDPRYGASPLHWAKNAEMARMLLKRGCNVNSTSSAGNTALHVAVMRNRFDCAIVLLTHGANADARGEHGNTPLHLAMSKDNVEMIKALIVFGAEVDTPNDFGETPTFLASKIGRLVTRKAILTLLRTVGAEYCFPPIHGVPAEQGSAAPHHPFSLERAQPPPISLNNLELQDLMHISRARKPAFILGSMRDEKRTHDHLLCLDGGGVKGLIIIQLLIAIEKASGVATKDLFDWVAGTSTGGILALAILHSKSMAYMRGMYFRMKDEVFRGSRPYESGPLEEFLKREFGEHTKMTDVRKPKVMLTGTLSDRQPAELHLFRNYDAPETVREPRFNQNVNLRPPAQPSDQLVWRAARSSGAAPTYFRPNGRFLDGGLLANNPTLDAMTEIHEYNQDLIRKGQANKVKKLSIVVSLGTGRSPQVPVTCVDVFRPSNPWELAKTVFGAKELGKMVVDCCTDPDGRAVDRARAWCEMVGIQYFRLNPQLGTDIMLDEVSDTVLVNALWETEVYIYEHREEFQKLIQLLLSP

human GIVA cPLA2 [3] = molecular target: T1, human GIVA cPLA2; settings: 0.091 mole fraction inhibitor; cited from earlier work
human GV sPLA2 [4] = molecular target: T2, human GV sPLA2; settings: 0.091 mole fraction inhibitor; cited from earlier work

| SMILES | GIVA cPLA2 % Inhibition at 0.091 (human GIVA cPLA2 [1]) | GV sPLA2 % Inhibition at 0.091 (human GV sPLA2 [2]) | GVIA iPLA2 % Inhibition at 0.091 (human GVIA iPLA2; 0.091 mole fraction inhibitor) | GVIA iPLA2 XI(50) (human GVIA iPLA2; mole fraction of inhibitor for 50% inhibition) | GIVA cPLA2 % Inhibition at 0.091 (human GIVA cPLA2 [3]) | GV sPLA2 % Inhibition at 0.091 (human GV sPLA2 [4]) |
| --- | --- | --- | --- | --- | --- | --- |
| COc1ccc(CCCCC(=O)C(F)(F)C(F)(F)F)cc1 [6d, 1,1,1,2,2-Pentafluoro-7-(4-methoxyphenyl)heptan-3-one] | no significant inhibition | no significant inhibition | – | – | – | – |
| O=C(CCCCc1ccccc1)C(F)(F)C(F)(F)F [FKGK11] | – | – | 99.4% | 0.0014 ± 0.0001 mole fraction | N.D. (N.D. signifies compounds with less than 25% inhibition (or no detectable inhibition)) | 28.0% |
